The values below are quoted from earlier work in patent US6051685A, “Peptide derivatives” (Daiichi Pharmaceuticals Co., Ltd., priority 1994, dated 2000).

For data set [1] the following is noted: intraventricular administration.
The conditions of data set [2]: in vivo.

SMILES strings stand for the structures.

`C[C@@H](NC(=O)[C@@H](N)Cc1ccc(O)cc1)C(=O)N[C@@H](Cc1ccccc1)C(=O)NCC(=O)N[C@@H](Cc1ccc(O)cc1)C(=O)N1CCC[C@H]1C(=O)N[C@@H](CO)C(N)=O` [Delmorfine, Dermorphin]: in data set [1], the “analgesic effect relative to morphine” value is “about 1,000 fold”. In addition, the “stability in living bodies” value in data set [2] is listed as “relatively stable in living bodies”.
